Structures are written as SMILES. Where two headings read alike, the source gives them in different places. Marks after values point to notes of the source that are not given here.

Results on 24 molecules are retold here after paper PMC5784158, “New 2-Aryl-9-methyl-β-carbolinium salts as Potential Acetylcholinesterase Inhibitor agents: Synthesis, Bioactivity and Structure–Activity Relationship” (Scientific Reports, 2018).

Test [1] concerns the target T1, BuChE (Equus caballus, UniProt P81908).
T1 construct: BuChE (E.C. 3.1.1.8) (BR, 20 u/mg) from horse serum; purchased Shanghai Yuanye biological technology Co. Ltd (Shanghai, China); host or cells: horse serum (tissue-derived)
The experiment in a line: BuChE inhibition, Ellman's method. The conditions noted are these: read-out: IC50 ± S.D BuChE. In kind it is biochemical, horse. An excerpt:
There is increasing recognition that BuChE may play an important role in cholinergic transmission[15],[16]. While the level of AChE decreases dramatically in the advanced stage of AD, BuChE increases in brain regions involved in cognitive functions[17],[18]. At this point, BuChE is able to compensate for AChE loss by hydrolyzing ACh. These observations lead one to believe that inhibition of both AChE and BuChE may contribute to improvement of current symptomatic treatments of AD. Therefore, the compounds in Table 2 were also evaluated for BuChE inhibition activity by means of Ellman’s method. […] AChE (E.C. 3.1.1.7) (BR, 200 u/mg) from fly’s head and BuChE (E.C. 3.1.1.8) (BR, 20 u/mg) from horse serum were purchased from Shanghai Yuanye biological technology Co. Ltd (Shanghai, China).
(§1) The inhibitory activities of the compounds against AChE were evaluated according to Ellman’s coupled enzyme assay[47] with the following modifications. 90 μL potassium phosphate buffer (PBS, 0.1 M, pH 7.4), 10 μL the solution of 2 units/mL AChE in 0.1 M PBS (pH 7.4) and 10 μL the solution of 200 μM test compounds in the mixed solution of methanol-PBS (pH 7.4) (1:9, V/V) were added to each well of a 96-well plate. The methanol-PBS solution was used as a blank control. After incubation at room temperature for 10 min, 60 μL the solution of 10 mM DTNB in PBS was added into each the well. The plate was placed on crushed ices and cooled for 20 min. To each the well was added 30 μL the solution of 7.5 mM ATCh in PBS (pH 7.4). […] Each test was performed in triplicate. Inhibition rates of the enzyme were calculated relative to a control sample. The inhibitory activities against BuChE were measured as described above for AChE, using 0.7 unit/mL BuChE and 4 mM BuTCh instead of AChE and ATCh as the enzyme and substrate, respectively.
(§2) The probit value of the average inhibition rate for each test concentration and the corresponding lg[concentration] were used to establish enzyme inhibition regression equation by the linear least-square fitting method. IC50 values were calculated from the equations.

Test [2] has as its target T2, AChE (Musca domestica, UniProt Q7YWJ9). The test can be described thus: biochemical. Particulars: for IC50: read-out: IC50 ± S.D AChE; for Inhibition rate (%): test concentration of the compound 10 μM. In kind it is biochemical, fly. The procedure: AChE (E.C. 3.1.1.7) (BR, 200 u/mg) from fly’s head and BuChE (E.C. 3.1.1.8) (BR, 20 u/mg) from horse serum were purchased from Shanghai Yuanye biological technology Co. Ltd (Shanghai, China).
as §1, §2

Test [3] concerns BuChE. The conditions noted are these: read-out: IC50 ± S.D BuChE; cited from earlier work.
Test [4] deals with AChE. Particulars: cited from earlier work.
In test [5] the target is T2, AChE. The test can be described thus: Kinetic analysis of AChE inhibition (substrate ATCh). It is filed as biochemical, fly. The conditions noted are these: substrate. An excerpt:
(A and B) The reciprocals of the initial reaction rates and substrate concentrations are plotted. (C and D) The slope values of the lines from graph A or C are plotted versus the inhibitor concentration, affording an equation of linear regression.

T1 sequence (P81908 whole entry): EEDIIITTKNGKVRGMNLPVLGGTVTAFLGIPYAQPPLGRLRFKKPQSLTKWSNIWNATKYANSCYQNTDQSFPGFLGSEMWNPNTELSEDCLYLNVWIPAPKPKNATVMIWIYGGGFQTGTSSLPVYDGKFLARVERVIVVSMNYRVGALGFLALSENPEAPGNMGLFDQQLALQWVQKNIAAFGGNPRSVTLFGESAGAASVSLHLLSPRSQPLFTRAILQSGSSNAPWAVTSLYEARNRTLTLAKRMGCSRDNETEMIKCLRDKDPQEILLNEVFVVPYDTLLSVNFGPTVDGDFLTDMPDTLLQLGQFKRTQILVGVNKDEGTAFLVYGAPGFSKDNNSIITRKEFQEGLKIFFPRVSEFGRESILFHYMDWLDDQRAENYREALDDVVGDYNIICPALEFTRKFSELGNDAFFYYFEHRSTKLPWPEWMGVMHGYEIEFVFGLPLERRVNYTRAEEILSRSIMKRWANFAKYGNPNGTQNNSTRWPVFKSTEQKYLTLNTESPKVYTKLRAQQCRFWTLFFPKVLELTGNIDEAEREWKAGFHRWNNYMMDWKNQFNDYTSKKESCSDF
T2 sequence (Q7YWJ9 81-659): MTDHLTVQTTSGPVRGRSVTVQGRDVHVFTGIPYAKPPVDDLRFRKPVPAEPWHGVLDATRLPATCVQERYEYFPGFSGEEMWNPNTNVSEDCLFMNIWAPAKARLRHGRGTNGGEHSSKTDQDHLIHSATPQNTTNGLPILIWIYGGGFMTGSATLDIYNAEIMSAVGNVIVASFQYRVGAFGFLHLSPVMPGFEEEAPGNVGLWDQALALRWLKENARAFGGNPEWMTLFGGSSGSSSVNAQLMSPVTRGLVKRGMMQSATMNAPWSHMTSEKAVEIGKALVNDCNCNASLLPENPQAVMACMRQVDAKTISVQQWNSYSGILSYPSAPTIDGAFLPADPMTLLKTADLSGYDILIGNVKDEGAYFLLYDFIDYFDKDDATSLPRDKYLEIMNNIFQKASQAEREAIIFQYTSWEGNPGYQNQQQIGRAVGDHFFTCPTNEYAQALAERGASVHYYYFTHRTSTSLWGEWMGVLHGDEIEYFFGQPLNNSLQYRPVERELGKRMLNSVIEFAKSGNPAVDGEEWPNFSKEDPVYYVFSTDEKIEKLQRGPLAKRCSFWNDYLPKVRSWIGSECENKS

On to `Cn1c2ccccc2c2cc[n+](-c3ccccc3F)cc21.[Br-]` [Compound B2, 9-Methyl-2-(2-fluorophenyl)-β-carboline bromide], for which the IC50 in test [1] stood at 23 ± 0.53 µM. Besides, in test [2], the “SI: selectivity index, ratio IC50 (BuChE)/IC50 (AChE)” value (shortened to “SI: selectivity index, ratio IC50”) is reported as 3.49; the IC50 was determined as 6.65 ± 1.07 µM; the “Inhibition rate (%)” value came out at 59.8 ± 3.2 n %.

Regarding `Cn1c2ccccc2c2cc[n+](-c3cccc(F)c3)cc21.[Br-]` [Compound B3, 9-Methyl-2-(3-fluorophenyl)-β-carboline bromide], the half-maximal inhibitory concentration (IC50) in test [1] was found to be 72.4 ± 4.25 µM. In test [2], the “SI: selectivity index, ratio IC50” value stood at 15.3; the IC50 was 4.73 ± 0.33 µM; the “Inhibition rate (%)” value turned out to be 70.5 ± 2.2 l %.

On to `Cn1c2ccccc2c2cc[n+](-c3ccc(F)cc3)cc21.[Br-]` [Compound B4, 9-Methyl-2-(4-fluorophenyl)-β-carboline bromide], for which the half-maximal inhibitory concentration (IC50) in test [1] was determined as 51.6 ± 2.43 µM. In test [2], the “SI: selectivity index, ratio IC50” value was 35.3; the half-inhibitory concentration (IC50) came out at 1.46 ± 0.12 µM; the “Inhibition rate (%)” value amounted to 84.3 ± 1.5 hi %.

With `Cn1c2ccccc2c2cc[n+](-c3cccc(Cl)c3)cc21.[Br-]` [Compound B6, 9-Methyl-2-(3-chlorophenyl)-β-carboline bromide], the IC50 in test [1] was determined as 33.1 ± 1.07 µM. Besides, in test [2], the “SI: selectivity index, ratio IC50” value is listed as 3.40; the 50% inhibitory concentration (IC50) worked out at 9.65 ± 0.78 µM; the “Inhibition rate (%)” value amounted to 56.4 ± 2.5 no %.

Take `Cn1c2ccccc2c2cc[n+](-c3ccc(Cl)cc3)cc21.[Br-]` [Compound B7, 9-Methyl-2-(4-chlorophenyl)-β-carboline bromide]: in test [1], the 50% inhibitory concentration (IC50) worked out at 60 ± 1.52 µM. Further, in test [2], the “SI: selectivity index, ratio IC50” value was 107.1; the IC50 was found to be 0.56 ± 0.07 µM; the “Inhibition rate (%)” value was 91.2 ± 1.5 cde %.

As to `Cn1c2ccccc2c2cc[n+](-c3ccc(Br)cc3)cc21.[Br-]` [Compound B10, 9-Methyl-2-(4-bromophenyl)-β-carboline bromide], the half-inhibitory concentration (IC50) in test [1] was 55.4 ± 1.73 µM. Besides, in test [2], the “SI: selectivity index, ratio IC50” value was 128.8; the concentration for half-maximal inhibition (IC50) worked out at 0.43 ± 0.04 µM; the “Inhibition rate (%)” value was 95.4 ± 0.8 ab %.

As to `Cn1c2ccccc2c2cc[n+](-c3cccc(I)c3)cc21.[Br-]` [Compound B12, 9-Methyl-2-(3-iodohenyl)-β-carboline bromide], the concentration for half-maximal inhibition (IC50) in test [1] was 21.1 ± 0.46 µM. Also, in test [2], the “SI: selectivity index, ratio IC50” value was found to be 1.90; the IC50 turned out to be 11.1 ± 1.34 µM; the “Inhibition rate (%)” value is given as 56.4 ± 5.9 no %.

Regarding `Cn1c2ccccc2c2cc[n+](-c3ccc(I)cc3)cc21.[Br-]` [Compound B13, 9-Methyl-2-(4-iodohenyl)-β-carboline bromide], the half-maximal inhibitory concentration (IC50) in test [1] was determined as 40.4 ± 1.83 µM. In test [2], the “SI: selectivity index, ratio IC50” value was 168.3 and the “Inhibition rate (%)” value was 93.8 ± 0.4 abcd %.

Consider `Cn1c2ccccc2c2cc[n+](-c3cccc(O)c3)cc21.[Br-]` [Compound B15, 9-Methyl-2-(3-hydroxyhenyl)-β-carboline bromide], for which the IC50 in test [1] was 29.6 ± 2.48 µM. For the same molecule, in test [2], the “SI: selectivity index, ratio IC50” value worked out at 7.60; the concentration for half-maximal inhibition (IC50) was 3.92 ± 0.3 µM; the “Inhibition rate (%)” value is 72.1 ± 1.8 l %.

As for `Cn1c2ccccc2c2cc[n+](-c3ccc(O)cc3)cc21.[Br-]` [Compound B16, 9-Methyl-2-(4-hydroxyhenyl)-β-carboline bromide], in test [1], the 50% inhibitory concentration (IC50) was 67.9 ± 11.5 µM. In test [2], the “SI: selectivity index, ratio IC50” value stood at 45.3; the IC50 was determined as 1.5 ± 0.19 µM; the “Inhibition rate (%)” value is listed as 82.1 ± 2.5 ij %.

Regarding `COc1cccc(-[n+]2ccc3c4ccccc4n(C)c3c2)c1.[Br-]` [Compound B18, 9-Methyl-2-(3-methoxylphenyl)-β-carboline bromide], the IC50 in test [1] was 62.2 ± 3.62 µM. In test [2], the “SI: selectivity index, ratio IC50” value came out at 6.42; the IC50 was 9.69 ± 0.8 µM; the “Inhibition rate (%)” value came out at 53.5 ± 0.4 op %.

Take `COc1ccc(-[n+]2ccc3c4ccccc4n(C)c3c2)cc1.[Br-]` [Compound B19, 9-Methyl-2-(4-methoxylphenyl)-β-carboline bromide]: the 50% inhibitory concentration (IC50) in test [1] is 34 ± 2 µM. In addition, in test [2], the “SI: selectivity index, ratio IC50” value is 72.3; the half-maximal inhibitory concentration (IC50) was 0.47 ± 0.04 µM; the “Inhibition rate (%)” value was determined as 90.7 ± 0.8 def %.

For the molecule `Cc1ccccc1-[n+]1ccc2c3ccccc3n(C)c2c1.[Br-]` [Compound B20, 9-Methyl-2-(2-methylphenyl)-β-carboline bromide], in test [1], the IC50 stood at 154 ± 9.1 µM. Moreover, in test [2], the “SI: selectivity index, ratio IC50” value amounted to 15.9; the half-maximal inhibitory concentration (IC50) is 9.71 ± 0.55 µM; the “Inhibition rate (%)” value amounted to 59.6 ± 3.2 n %.

On to `Cc1cccc(-[n+]2ccc3c4ccccc4n(C)c3c2)c1.[Br-]` [Compound B21, 9-Methyl-2-(3-methylphenyl)-β-carboline bromide], for which, in test [1], the IC50 was 68.6 ± 8.06 µM. In test [2], the “SI: selectivity index, ratio IC50” value was 13.6; the IC50 worked out at 5.05 ± 0.26 µM; the “Inhibition rate (%)” value is 72.4 ± 3.9 l %.

Turning to `Cn1c2ccccc2c2cc[n+](-c3ccccc3C#N)cc21.[Br-]` [Compound B23, 9-Methyl-2-(2-cyanophenyl)-β-carboline bromide], the IC50 in test [1] stood at 196 ± 13.4 µM. In addition, in test [2], the “SI: selectivity index, ratio IC50” value is 44.4; the IC50 is 4.41 ± 0.29 µM; the “Inhibition rate (%)” value turned out to be 68.7 ± 0.7 lm %.

For the molecule `Cn1c2ccccc2c2cc[n+](-c3cccc(C#N)c3)cc21.[Br-]` [Compound B24, 9-Methyl-2-(3-cyanophenyl)-β-carboline bromide], the IC50 in test [1] was found to be 212 ± 17.4 µM. In test [2], the “SI: selectivity index, ratio IC50” value was found to be 20.6; the IC50 was 10.3 ± 0.6 µM; the “Inhibition rate (%)” value worked out at 50.7 ± 2.2 pq %.

As to `Cn1c2ccccc2c2cc[n+](-c3ccc(C(F)(F)F)cc3)cc21.[Br-]` [Compound B27, 9-Methyl-2-(4-trifluoromethylphenyl)-β-carboline bromide], in test [1], the IC50 was found to be 77.9 ± 4.97 µM. In test [2], the “SI: selectivity index, ratio IC50” value is 111.3; the concentration for half-maximal inhibition (IC50) was 0.7 ± 0.11 µM; the “Inhibition rate (%)” value came out at 91.4 ± 0.3 bcde %.

In the case of `Cn1c2ccccc2c2cc[n+](-c3ccc(Cl)cc3Cl)cc21.[Br-]` [Compound B30, 9-Methyl-2-(2,4-dichlorophenyl)-β-carboline bromide], the IC50 in test [1] was 133 ± 26.3 µM. In addition, in test [2], the “SI: selectivity index, ratio IC50” value is on record as 241.1; the 50% inhibitory concentration (IC50) is 0.55 ± 0.07 µM; the “Inhibition rate (%)” value is on record as 90.6 ± 1.0 def %.

On to `Cn1c2ccccc2c2cc[n+](-c3ccc(Br)cc3F)cc21.[Br-]` [Compound B32, 9-Methyl-2-(2-fluoro-4-bromophenyl)-β-carboline bromide], for which the concentration for half-maximal inhibition (IC50) in test [1] came out at 116 ± 18.2 µM. Also, in test [2], the “SI: selectivity index, ratio IC50” value worked out at 385.0 and the “Inhibition rate (%)” value is recorded as 92.8 ± 1.0 abc %.

Consider `COc1cc2c(cc1OC)C(=O)C(CC1CCN(Cc3ccccc3)CC1)C2` (stereo not drawn) [Donepezil, donepezil], for which the IC50 in test [3] was […].

Regarding `CCN(C)C(=O)Oc1cccc([C@H](C)N(C)C)c1` [Rivastigmine, rivastigmine], the “SI: selectivity index, IC50 (BuChE)/IC50 (AChE)” value in test [4] is reported as […]. Also, the IC50 is […] in test [4] (read-out: IC50 ± S.D AChE) and […] in test [3].

As to `Nc1c2c(nc3ccccc13)CCCC2` [Tacrine, tacrine], the IC50 in test [3] was […].

Take `CC(=O)SCC[N+](C)(C)C` [acetylthiocholine iodide, Acetylthiocholine iodide, reference compound]: the Km in test [5] was determined as 163 µM.

As to `Nc1c2c(nc3cc(Cl)ccc13)C[C@H]1C=C(CCO)C[C@@H]2C1` [huprine W], in test [4] (inhibitor co-crystallised with AChE (PDB 4BDT), reference not given, read-out: IC50 AChE), the IC50 is 0.0011 µM.

Broadly, the IC50 is the concentration that gives 50% inhibition. The term Km denotes the concentration of substrate that gives half-maximal velocity.
